According to US9802960B2 (MILLENNIUM PHARMACEUTICALS, INC., priority 2014, dated 2017):

Biological target: Human VPS34 (Homo sapiens (Human), UniProt Q8NEB9)
Assay: Human VPS34 enzyme assay (Adapta TR-FRET)
Assay type: biochemical
Conditions: compound concentration 1.11 μM; read-out: Percent Inhibition

Sequence of Human VPS34 (Q8NEB9 whole entry): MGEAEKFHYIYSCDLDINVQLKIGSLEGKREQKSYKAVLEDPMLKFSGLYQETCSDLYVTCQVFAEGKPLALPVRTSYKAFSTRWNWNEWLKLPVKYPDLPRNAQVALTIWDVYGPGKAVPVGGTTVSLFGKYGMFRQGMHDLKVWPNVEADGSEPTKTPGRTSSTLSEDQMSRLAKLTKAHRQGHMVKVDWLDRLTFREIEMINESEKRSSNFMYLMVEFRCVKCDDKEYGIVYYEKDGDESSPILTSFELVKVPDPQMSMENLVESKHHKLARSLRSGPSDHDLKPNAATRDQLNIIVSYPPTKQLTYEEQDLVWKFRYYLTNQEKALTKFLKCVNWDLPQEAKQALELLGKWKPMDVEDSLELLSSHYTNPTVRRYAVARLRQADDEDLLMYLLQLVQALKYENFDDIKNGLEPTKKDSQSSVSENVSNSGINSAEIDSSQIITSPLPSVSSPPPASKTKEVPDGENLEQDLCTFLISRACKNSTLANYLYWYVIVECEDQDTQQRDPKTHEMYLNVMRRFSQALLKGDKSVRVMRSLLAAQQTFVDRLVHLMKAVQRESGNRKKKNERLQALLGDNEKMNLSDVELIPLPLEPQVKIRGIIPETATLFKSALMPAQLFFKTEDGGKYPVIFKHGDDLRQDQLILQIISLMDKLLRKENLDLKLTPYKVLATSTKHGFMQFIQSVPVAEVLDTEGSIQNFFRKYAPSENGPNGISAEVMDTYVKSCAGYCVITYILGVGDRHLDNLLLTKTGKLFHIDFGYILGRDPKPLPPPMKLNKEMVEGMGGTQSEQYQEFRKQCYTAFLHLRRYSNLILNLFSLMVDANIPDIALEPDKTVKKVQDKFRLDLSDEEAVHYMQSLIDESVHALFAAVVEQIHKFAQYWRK

Structure (SMILES) | inhibition at 1.11 µM [%]
CC(=O)Nc1cc(-c2cncc(N3CCCS3(=O)=O)c2)ccn1 [Compound I-192, N-[5-(1,1-dioxidoisothiazolidin-2-yl)-3,4′-bipyridin-2′-yl]acetamide] | > 99
CC(=O)Nc1cc(-c2cnc(C)c(NC(C)=O)c2)ccn1 [Compound I-193, N,N′-(6-methyl-3,4′-bipyridine-2′,5-diyl)diacetamide] | > 99
CC(=O)Nc1cc(-c2cncc(C(C)=O)c2)ccn1 [Compound I-194, N-(5-acetyl-3,4′-bipyridin-2′-yl)acetamide] | 62
COC(=O)Nc1cc(-c2cnc(C)c(NS(=O)(=O)c3ccc(F)cc3F)c2)ccn1 [Compound I-195, methyl (5-{[(2,4-difluorophenyl)sulfonyl]amino}-6-methyl-3,4′-bipyridin-2′-yl)carbamate] | > 99
CC(=O)Nc1cc(-c2cnc(C)c(NS(=O)(=O)c3ccc(C(F)(F)F)cc3Cl)c2)ccn1 [Compound I-196, N-[5-({[2-chloro-4-(trifluoromethyl)phenyl]sulfonyl}amino)-6-methyl-3,4′-bipyridin-2′-yl]acetamide] | > 99
CC(=O)Nc1cc(-c2cnc(N)c(S(=O)(=O)Cc3ccccc3F)c2)ccn1 [Compound I-197, N-{6-amino-5-[(2-fluorobenzyl)sulfonyl]-3,4′-bipyridin-2′-yl}acetamide] | > 99
CC(=O)Nc1cc(-c2cncc(C(=O)/C=C/c3ccc(F)cc3)c2)ccn1 [Compound I-198, N-{5-[(2E)-3-(4-fluorophenyl)prop-2-enoyl]-3,4′-bipyridin-2′-yl}acetamide] | 68
CC(=O)Nc1cc(-c2cnc3ccn(S(=O)(=O)C4CC4)c3c2)ccn1 [Compound I-199, N-{4-[1-(cyclopropylsulfonyl)-1H-pyrrolo[3,2-b]pyridin-6-yl]pyridin-2-yl}acetamide] | > 99
CC(=O)Nc1cc(-c2cnc(N)c(C(=O)N3CCC3)c2)ccn1 [Compound I-200, N-[6-amino-5-(azetidin-1-ylcarbonyl)-3,4′-bipyridin-2′-yl]acetamide] | > 99
CCc1ncc(-c2ccnc(NC(C)=O)c2)cc1NS(=O)(=O)c1ccc(F)cc1F [Compound I-201, N-(5-{[(2,4-difluorophenyl)sulfonyl]amino}-6-ethyl-3,4′-bipyridin-2′-yl)acetamide] | > 99
CC(=O)Nc1cc(-c2cncc(N(CC3CC3)S(C)(=O)=O)c2)ccn1 [Compound I-202, N-{5-[(cyclopropylmethyl)(methylsulfonyl)amino]-3,4′-bipyridin-2′-yl}acetamide] | > 99
CC(=O)Nc1cc(-c2cnc(C)c(NS(=O)(=O)c3ccsc3)c2)ccn1 [Compound I-203, N-{6-methyl-5-[(3-thienylsulfonyl)amino]-3,4′-bipyridin-2′-yl}acetamide] | > 99
CC(=O)Nc1cc(-c2cnc(N)c(S(=O)(=O)Nc3cccnc3)c2)ccn1 [Compound I-204, N-[6-amino-5-(pyridin-3-ylsulfamoyl)-3,4′-bipyridin-2′-yl]acetamide] | > 99
CC(=O)Nc1cc(-c2cnc(N)c(S(=O)(=O)Cc3cccnc3)c2)ccn1 [Compound I-205, N-{6-amino-5-[(pyridin-3-ylmethyl)sulfonyl]-3,4′-bipyridin-2′-yl}acetamide] | > 99
CC(=O)Nc1cc(-c2cnc(C)c(NS(=O)(=O)c3ccc(F)cc3Cl)c2)ccn1 [Compound I-206, N-(5-{[(2-chloro-4-fluorophenyl)sulfonyl]amino}-6-methyl-3,4′-bipyridin-2′-yl)acetamide] | > 99
CC(=O)Nc1cc(-c2cnc(N)c(S(=O)(=O)Nc3ccc(Cl)cc3)c2)ccn1 [Compound I-207, N-{6-amino-5-[(4-chlorophenyl)sulfamoyl]-3,4′-bipyridin-2′-yl}acetamide] | > 99
CC(=O)Nc1cc(-c2cnc3[nH]ncc3c2)c(C)cn1 [Compound I-209, N-[5-methyl-4-(1H-pyrazolo[3,4-b]pyridin-5-yl)pyridin-2-yl]acetamide] | 49
CC(=O)Nc1cc(-c2cnc(N)c(C(=O)NC3CCOCC3)c2)ccn1 [Compound I-210, 2′-acetamido-6-amino-N-(tetrahydro-2H-pyran-4-yl)-3,4′-bipyridine-5-carboxamide] | > 99
CC(=O)Nc1cc(-c2cnc(C)c(NS(=O)(=O)c3ccccc3C)c2)ccn1 [Compound I-211, N-(6-methyl-5-{[(2-methylphenyl)sulfonyl]amino}-3,4′-bipyridin-2′-yl)acetamide] | > 99
CC(=O)Nc1cc(-c2cnc(C)c(N(C)S(=O)(=O)C3CC3)c2)ccn1 [Compound I-212, N-{5-[(cyclopropylsulfonyl)(methyl)amino]-6-methyl-3,4′-bipyridin-2′-yl}acetamide] | 95
CC(=O)Nc1cc(-c2cnc(Cl)c(C(=O)N(C)C)c2)ccn1 [Compound I-213, 2′-acetamido-6-chloro-N,N-dimethyl-3,4′-bipyridine-5-carboxamide] | > 99
CC(=O)Nc1cc(-c2cnc(C)c(NS(=O)(=O)N3CCCCC3)c2)ccn1 [Compound I-214, N-{6-methyl-5-[(piperidin-1-ylsulfonyl)amino]-3,4′-bipyridin-2′-yl}acetamide] | > 99
Cc1nccc(Nc2cc(-c3cnc(Cl)c(S(=O)(=O)NC4CCC4)c3)ccn2)n1 [Compound I-215, 6-chloro-N-cyclobutyl-2′-((2-methylpyrimidin-4-yl)amino)-[3,4′-bipyridine]-5-sulfonamide] | 99
N=C(N)NC(=O)c1cc(-c2ccnc(Nc3ccncn3)c2)cnc1N [Compound I-216, 6-Amino-N-carbamimidoyl-2′-(pyrimidin-4-ylamino)-3,4′-bipyridine-5-carboxamide] | 97
Cc1ncc(-c2ccnc(Nc3ccncn3)c2)cc1NS(=O)(=O)N(C)C [Compound I-217, N,N-dimethyl-Y-[6-methyl-2′-(pyrimidin-4-ylamino)-3,4′-bipyridin-5-yl]sulfuric diamide] | > 99
CC(=O)Nc1cc(-c2cnc(C)c(NS(=O)(=O)c3ccc(F)cc3F)c2)cc[n+]1[O-] [Compound I-219, N-[4-(5-{[(2,4-difluorophenyl)sulfonyl]amino}-6-methylpyridin-3-yl)-1-oxidopyridin-2-yl]acetamide] | 92
COc1ncc(-c2ccnc(NC(C)=O)c2)cc1NS(=O)(=O)N(C)C [Compound I-220, N-{5-[(dimethylsulfamoyl)amino]-6-methoxy-3,4′-bipyridin-2′-yl}acetamide] | 99
Cc1nccc(Nc2cc(-c3cnc(C)c(C(=O)N4CC(F)(F)C4)c3)ccn2)n1 [Compound I-221, (3,3-difluoroazetidin-1-yl){6-methyl-2′-[(2-methylpyrimidin-4-yl)amino]-3,4′-bipyridin-5-yl}methanone] | 97
CNc1ncc(-c2ccnc(Nc3ccncn3)c2)cc1C(=O)N(C)C12CC(C1)C2 [Compound I-222, N-(bicyclo[1.1.1]pent-1-yl)-N-methyl-6-(methylamino)-2′-(pyrimidin-4-ylamino)-3,4′-bipyridine-5-carboxamide] | 93

Same assay, conditions: read-out: Percent Inhibition

Structure (SMILES) | inhibition at 1.11 µM [%]
CC(=O)Nc1cc(-c2cnc(N)c(S(=O)(=O)CC3CC3)c2)ccn1 [Compound I-208] | > 99
